In one data set the target is T1, ERα (Homo sapiens, UniProt P03372).
T1 construct: host or cells: MCF-7
T1 sequence (P03372 1-595): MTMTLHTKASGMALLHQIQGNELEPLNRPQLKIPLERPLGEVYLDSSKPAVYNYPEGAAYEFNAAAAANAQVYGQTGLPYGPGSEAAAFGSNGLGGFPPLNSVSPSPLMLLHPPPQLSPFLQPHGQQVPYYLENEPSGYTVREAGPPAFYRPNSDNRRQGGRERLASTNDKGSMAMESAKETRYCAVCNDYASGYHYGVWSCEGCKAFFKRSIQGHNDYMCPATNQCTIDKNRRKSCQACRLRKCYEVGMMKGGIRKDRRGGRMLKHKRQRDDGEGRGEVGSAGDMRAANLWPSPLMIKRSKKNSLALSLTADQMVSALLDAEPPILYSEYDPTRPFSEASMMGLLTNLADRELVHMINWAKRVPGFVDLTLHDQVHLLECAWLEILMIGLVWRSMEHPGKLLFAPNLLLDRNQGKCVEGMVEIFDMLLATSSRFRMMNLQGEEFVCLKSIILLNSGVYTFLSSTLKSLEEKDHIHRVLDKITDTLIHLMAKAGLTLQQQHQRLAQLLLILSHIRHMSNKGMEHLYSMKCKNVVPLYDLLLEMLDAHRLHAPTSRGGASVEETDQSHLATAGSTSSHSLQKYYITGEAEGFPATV
The data set can be described thus: ER degradation activity in MCF-7 cells (Western blot, grayscale intensity). The format is cell-based. Conditions: 6 hours treatment, 1 nM to 100 nM, concentration required to degrade 50% of the target protein. The gist of the method: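 MCF-7 cells were treated 24 h after seeding with test compounds at 1 nM to 100 nM final (0.2% DMSO) for 6 h at 37 °C. ERα in lysates (30 µg protein) was detected by Western blot with ECL; degradation was quantified from band grayscale intensity and DC50 derived.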

The subject of the next data set is MCF-7 cells. Nature of the data set: Inhibition of MCF-7 cell proliferation (CellTiter-Glo cell viability). The format is cell-based. The note with it: Homo sapiens, MCF7, 144 h, 6 days treatment, 1 pM to 10 µM. As to the method: ERα-positive human breast cancer cells MCF-7 (ATCC, HTB-22) were cultured with EMEM medium (ATCC, catalog number 30-2003) containing 10% fetal bovine serum (Thermo Fisher, catalog number 10099141) and 10 µg/mL bovine insulin in 25 cm^2 or 75 cm^2 plastic tissue culture flasks in a 37 °C incubator with 5% CO2. The cells were passaged 2 to 3 times per week.
MCF-7 cells were seeded in 96-well plate at 3×10^3 cells/well with 90 µL culture medium per well, and cultured in a 37 °C incubator with 95% air and 5% CO2. After 24 hours, the test compounds were added: the compounds were serially diluted 10-fold in DMSO starting from 10 mM (dissolved in DMSO) to prepare gradient stock solutions. A complete culture medium containing 1% DMSO was prepared for further dilution, temporarily named as the "dilution buffer." Working solutions were prepared by diluting each stock solution with 99 times the volume of dilution buffer, that is, by adding 1 µL of the 10 mM stock solution to 99 µL of the dilution buffer and mixing thoroughly. Finally, 10 µL of the working solution was added to the cell-seeded culture plate. The final concentration of DMSO in the cell culture medium was 0.2%, and the final concentration of the test compounds ranged from 1 pM to 10 µM. The cells were then incubated at 37 °C for 3 days. The culture medium was removed and replaced with 90µL per well of fresh medium. According to the above compound dilution method, the test compounds were added again. On the 6th day, the CellTiter Glo luminescent cell viability assay kit (Promag, item number G7573) was added for cell viability measurement.
Cell viability was measured using the CellTiter-Glo assay kit, and the half-maximal growth inhibitory concentration (GI50) of the compounds was calculated using the Prism software.
The GI50 values (i.e., the concentration of the test compounds required to inhibit 50% of the cell proliferation) were calculated and shown in Table 2. A corresponds to a GI50 value below 10 nM, B corresponds to a GI50 value greater than 10 nM and less than 100 nM, and C corresponds to GI50 values greater than 100 nM. Table 2. The GI50 values of exemplary compounds in MCF-7 cells

Data set [1] is described as follows: Body weight of MCF-7/ERα Y537S xenograft mice. The format is in vivo, female Balb/c nude mice. Conditions: 1, 3 and 10 mpk, daily oral gavage, 17 days. An excerpt:
(§1) MCF-7/ERα Y537S tumors that had been passaged in mice for more than three but less than ten generations were transplanted as approximately 3×3×3 mm tumor blocks into the subcutaneous right flank of female Balb/c nude mice. When the tumor volume in the tumor-bearing mice reached around 200 mm^3, the mice were randomly divided into four groups according to tumor volume and body weight: vehicle group, 1 mpk group, 3 mpk group, and 10 mpk group, 7 mice in each group. The day of grouping was designated as D0, and daily oral gavage administration began on this day and last for a total of 17 days. The 17th day after administration was designated as Day 17.
(§2) The tumor volume was measured twice weekly using a caliper, and the body weight of the mice was measured using an analytical balance. The length and width of the tumor were measured, and the formula for tumor volume calculation is: Tumor Volume (TV) = 0.5 × length × width× width. The T/C value was calculated based on the tumor volume, where T is the mean relative tumor volume (RTV) of the treated groups, and C is the mean RTV of the vehicle group. The RTV is the ratio of the tumor volume after administration to the tumor volume before administration. The tumor growth inhibition rate (TGITV) (%) = (1 - T/C) × 100%.

Data set [2] deals with MCF-7/ERα Y537S xenografts. The data set can be described thus: Anti-tumor activity in MCF-7 xenografts expressing ERα Y537S mutant. The format is in vivo, female Balb/c nude mice. Conditions: 1, 3 and 10 mpk, daily oral gavage, 17 days.
From the text: as §1, §2

`CC1(C)CC(=C(c2ccc(N3CCC(N4CCN(c5ccc6c(c5)C(=O)N(C5CCC(=O)NC5=O)C6=O)CC4)CC3)cc2)c2ccc3[nH]nc(F)c3c2)CC(C)(C)O1` (stereo not drawn) [Compound 31] showed a DC50 on ERα below 10 nM. For the same molecule, the GI50 in the data set on MCF-7 cells was below 10 nM.
`CC1(C)CC(=C(c2ccc(N3CCC(N4CCN(c5ccc6c(c5)CN(C5CCC(=O)NC5=O)C6=O)CC4)CC3)cc2)c2ccc3[nH]nc(F)c3c2)CC(C)(C)O1` (stereo not drawn) [Compound 37]: the DC50 on ERα was 10 to 100 nM. This molecule also displayed a GI50 in the data set with MCF-7 cells below 10 nM.
For `CC1(C)CC(=C(c2ccc(N3CCC(CNC4CCN(c5ccc6c(c5)CN(C5CCC(=O)NC5=O)C6=O)CC4)CC3)nc2)c2ccc3[nH]nc(F)c3c2)CC(C)(C)O1` (stereo not drawn) [Compound 44], in that order: below 10 nM and below 10 nM.
The molecule `CC1(C)CC(=C(c2ccc(N3CC4(CCN(C5CCN(c6ccc7c(c6)CN(C6CCC(=O)NC6=O)C7=O)CC5)CC4)C3)nc2)c2ccc3[nH]nc(F)c3c2)CC(C)(C)O1` (stereo not drawn) [Compound 46] showed a DC50 on ERα below 10 nM. The molecule also yielded a GI50 in the data set on MCF-7 cells below 10 nM.
On ERα, `CC1(C)CC(=C(c2ccc(N3CCC4(CC3)CN(C3CCN(c5ccc6c(c5)CN(C5CCC(=O)NC5=O)C6=O)CC3)C4)nc2)c2ccc3[nH]nc(F)c3c2)CC(C)(C)O1` (stereo not drawn) [Compound 47] registered a DC50 below 10 nM. The GI50 with MCF-7 cells is below 10 nM.
Molecule `CC1(C)CC(=C(c2ccc(N3CCC(F)(CNC4CCN(c5ccc6c(c5)CN(C5CCC(=O)NC5=O)C6=O)CC4)CC3)nc2)c2ccc3[nH]nc(F)c3c2)CC(C)(C)O1` (stereo not drawn) [Compound 48] registered a DC50 at ERα below 10 nM. Further, the GI50 with MCF-7 cells was below 10 nM.
In the case of `CC1(C)CC(=C(c2ccc(N3CCC(CN4CCN(c5ccc(N6CCC(=O)NC6=O)cc5)CC4)CC3)nc2)c2ccc3[nH]nc(F)c3c2)CC(C)(C)O1` [Compound 77], on ERα, the DC50 is above 100 nM. For the same molecule, the GI50 with MCF-7 cells was above 100 nM.
For `CC1(C)CC(=C(c2ccc(N3CCC(CN4CCN(c5ccc(NC6CCC(=O)NC6=O)cc5)CC4)CC3)nc2)c2ccc3[nH]nc(F)c3c2)CC(C)(C)O1` (stereo not drawn) [Compound 88], the DC50 on ERα is above 100 nM. In the data set on MCF-7 cells, this molecule registered a GI50 above 100 nM.
With `CC1(C)CC(=C(c2ccc(N3CCC(CN4CCN(c5ccc(NC6CCC(=O)NC6=O)c(F)c5)CC4)CC3)nc2)c2ccc3[nH]nc(F)c3c2)CC(C)(C)O1` (stereo not drawn) [Compound 89], the DC50 on ERα is above 100 nM. The molecule further gave a GI50 in the data set with MCF-7 cells above 100 nM.
As for `CC1(C)CC(=C(c2ccc(N3CCC(CN4CCN(c5ccc6c(c5)CN([C@H]5CCC(=O)NC5=O)C6=O)CC4)CC3)nc2)c2ccc3[nH]nc(F)c3c2)CC(C)(C)O1` [Compound 110], the DC50 at ERα was below 10 nM. The “effect on body weight” value in data set [1] was “no effect”. Further, the GI50 with MCF-7 cells was below 10 nM. Moreover, the tumor growth inhibition entry in data set [2] was “dose-dependent tumor growth inhibition”.
On to `CC1(C)CC(=C(c2ccc(N3CCC(CN4CCN(c5ccc6c(c5)CN([C@@H]5CCC(=O)NC5=O)C6=O)CC4)CC3)nc2)c2ccc3[nH]nc(F)c3c2)CC(C)(C)O1` [Compound 119], for which the DC50 on ERα was below 10 nM. Also, the GI50 with MCF-7 cells is below 10 nM.
Regarding `CC1(C)CC(=C(c2ccc(N3CCC4(CC3)CC(N3CCN(c5ccc6c(c5)CN([C@H]5CCC(=O)NC5=O)C6=O)CC3)C4)nc2)c2ccc3[nH]nc(F)c3c2)CC(C)(C)O1` [Compound 120], the DC50 at ERα was below 10 nM. The “effect on body weight” value in data set [1] is “no effect”. This molecule had a GI50 with MCF-7 cells below 10 nM. Besides, the tumor growth inhibition result in data set [2] was “dose-dependent tumor growth inhibition”.
On ERα, `CC1(C)CC(=C(c2ccc(N3CCC4(CC3)CC(N3CCN(c5ccc6c(c5)CN([C@@H]5CCC(=O)NC5=O)C6=O)CC3)C4)nc2)c2ccc3[nH]nc(F)c3c2)CC(C)(C)O1` [Compound 121] registered a DC50 below 10 nM. In the data set with MCF-7 cells, this molecule had a GI50 below 10 nM.
